Target: 5'-nucleotidase (Homo sapiens, UniProt P21589)
Assay: In Vitro Inhibitory Activity of Compound to Recombinant Human CD73 Enzyme
Protocol: Human-CD73 (Novoprotein; C446) was diluted with Tris-MgCl2 buffer to form a stock solution (3×), which was placed in a 96-well plate according to 20 μL/well to obtain a final concentration of 0.1 μg/mL. The compound was diluted with Tris-MgCl2 buffer to form a stock solution (3×) of an appropriate concentration gradient, the compound solution was added to the above 96-well plate according to 20 μL/well and uniformly mixed with the Human-CD73 solution, and the mixture was incubated at the room temperature for 30 min. Meanwhile, a positive reference group (without the compound) and a negative reference group (without CD73) were set. AMP (Sigma; A1752-5G) was diluted with Tris-MgCl2 buffer to form a stock solution (3×), which was added to the above 96-well plate according to 20 μL/well to obtain a final concentration of 100 μM, and the mixture was uniformly mixed and incubated at 37° C. for 60 min; ATP (Sigma; A7699-1G) was diluted with Tris-MgCl2 buffer to form a stock solution (7×), which was added to the above 96-well plate according to 10 μL/well to obtain a final concentration of 100 μM, and the mixture was uniformly mixed, incubated for 5 min, and tested by using an ATP-GLO kit (Promega; G7573).

Chain of 5'-nucleotidase (P21589 whole entry): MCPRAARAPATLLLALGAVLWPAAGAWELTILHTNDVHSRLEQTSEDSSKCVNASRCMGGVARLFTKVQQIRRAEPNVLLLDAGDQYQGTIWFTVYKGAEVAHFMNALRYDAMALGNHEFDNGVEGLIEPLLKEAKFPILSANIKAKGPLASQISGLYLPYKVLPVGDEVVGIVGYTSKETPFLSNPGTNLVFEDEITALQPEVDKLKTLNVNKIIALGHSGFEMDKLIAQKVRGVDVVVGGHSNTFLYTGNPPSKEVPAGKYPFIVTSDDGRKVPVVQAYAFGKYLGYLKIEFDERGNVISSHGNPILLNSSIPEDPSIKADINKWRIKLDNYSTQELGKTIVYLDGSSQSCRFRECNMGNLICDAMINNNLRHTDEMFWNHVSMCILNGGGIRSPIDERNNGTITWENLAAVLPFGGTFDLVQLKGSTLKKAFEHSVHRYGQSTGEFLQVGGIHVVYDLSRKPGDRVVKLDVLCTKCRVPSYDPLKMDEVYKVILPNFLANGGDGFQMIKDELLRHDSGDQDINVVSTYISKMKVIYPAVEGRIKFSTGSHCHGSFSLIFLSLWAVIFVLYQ

Row | IC50 | SMILES
1 | 23.2 nM | O=c1[nH]cc(-c2cc([C@@H]3C[C@H]3C(F)(F)F)c(Cl)nn2)c(=O)[nH]1 (relative stereo) [US20230399314, Compound 2]
2 | 11.6 nM | O=c1[nH]cc(-c2cc([C@H]3C[C@@H]3C(F)(F)F)c(Cl)nn2)c(=O)[nH]1 [US20230399314, Compound 3]
3 | 4.59 nM | O=c1[nH]cc(-c2cc([C@H]3C[C@@H]3CF)c(Cl)nn2)c(=O)[nH]1 [US20230399314, Compound 9]

Source: BindingDB's records for patent US20230399314 (Wuhan Humanwell Innovative Drug Research and Development …, 2023)
